From patent publication US20050055748A1, “Stress-responsive genes, regulatory elements, and methods of use for same” (priority 2003, published 2005)
“Also recorded” adds a separate entry of the source.

What was measured:
Format in all cases: cell-based, Zea mays
[1] = tested on: Hi-II maize cells; experiment: Growth of Hi-II maize callus cells on media containing sucrose and raffinose, with or without dehydration stress; details: for Relative weight gain, Dehydration stressed: dried in a flowhood for 4 h; for Relative weight gain, Dehydration stressed / Relative weight gain, Control: increase in weight relative to initial weight, means of three replicates; for Relative weight gain, Control: no dehydration stress
Experimental: Table 1. Growth of Hi-II maize cells in culture on media containing sucrose and raffinose. Hi-II cells were weighed, cultured on different media for 4 d, transferred to N6 medium, cultured for another 7 d, and re-weighed. For dehydration stress, Hi-II cells were weighed, cultured on different media for […] , dried in a flowhood for 4 h, subsampled for water content, returned to the initial media for 1 d, transferred to N6 medium, cultured for 7 days, and re-weighed. Growth rates (increase in weight relative to initial weight) and water contents (dry weight basis) are the means of three replicates. Analysis of variance and mean separations were calculated among media within a dehydration stress treatment.
(§1) Maize Hi-II callus cultures were initiated according to Armstrong and Green (1985) from immature embryos isolated from Hi-II maize plants provided by Pioneer. Cultures were incubated in the dark at 25° C. on solid N6 medium containing 2% (w/v) sucrose (Chu et al., 1975) amended with 2 mg/L 2,4-dichlorophenoxyacetic acid, 25 mmol/L L-proline, and 10 μmol/L AgNO3, pH 5.8 (N6S2 medium) and sub-cultured every two weeks onto fresh media. For experimental treatments, approximately 2 g of cells (fresh weight) were added to each 100×15 mm plate. To determine the effect of various sugars and environmental stresses on the expression of ZmGOLS and ZmRAFS genes in maize Hi-II callus cells, callus was cultured on N6 media supplemented with different concentrations of sugars and: a) grown at 25° C. in the dark (control conditions); b) exposed to 42° C. for 24 h (heated); c) exposed to 4° C. for 24 h (chilled); or d) exposed to a current of air at 25° C. in a laminar flow hood for 4 h (dehydrated). To determine the responsiveness of ZmGOLS and ZmRAFS genes to exogenous ABA, calli were grown on media with 1, 10, and 100 μM cis, trans-ABA (Sigma) under control conditions for 1 d prior to harvest and RNA extraction.
Samples of Hi-II cells growing on N6S2 were weighed and placed on N6S2, N6S5, or N6S5 supplemented with 0.1% w/v raffinose. Callus was grown for 4 d at 25° C. on these various media. The callus on a particular medium was separated into two equal sub-samples and the fresh weight obtained. A sub-sample of half of the callus cells per plate for each medium was subjected to dehydration stress by removal from the medium and exposure to a current of air in a flow hood for 4 h. The remaining half of the callus cells were not exposed to stress. After 4 h dehydration stress the callus was placed back on its respective medium for an additional 22 h. Previously stressed and non-stressed calli were then transferred to N6S2 for one week. At the end of the week the calli were weighed again to determine how much growth had occurred during the week. The growth of the cells was expressed as the increase in fresh weight after one week of growth on N6S2 relative to the callus fresh weight 7 days earlier (Dennehey et al.; 1994). This experiment was repeated 3 times.

[2] = tested on: ZmGOLS2; experiment: ZmGOLS2 gene expression in maize Hi-II callus (northern blot, RPA); details: for ZmGOLS2 mRNA in stressed callus (FIG. 7A): 2% sucrose plus 0.01% myo-inositol or 7.8% mannitol, dehydration 4 h or heat 42° C. 24 h
Experimental: as §1
(§2) Sucrose and raffinose amounts in N6 media were altered, singly for sucrose or in combination with raffinose, to determine if RAFS substrates or the final product of the coordinate action of GOLS and RAFS influenced ZmGOLS and ZmRAFS gene expression. Because it is not known whether sucrose or raffinose are taken up into Hi-II cells directly or if they are hydrolyzed prior to uptake, glucose, fructose, galactose, and melibiose were also supplied. Myo-inositol (1,2,3,5-trans-4,6-hexahydroxy cyclohexane, Sigma), a GOLS substrate, was added to N6S2 media at amounts from 0.01-1% w/v. To determine if gene expression was regulated by osmotic stress, N6S2 media was amended with 0.1% to 7.8% w/v mannitol. Callus cells were also grown on N6 with combinations of sugars and the myo-inositol isomer, scyllo-inositol. All chemicals were sterilized by filtration and added to autoclaved media cooled to 65° C. just prior to pouring the plates. Hi-II callus cells on these various media were maintained under control conditions or subjected to stress (see above) prior to being harvested for sugar or RNA extraction or moisture content analysis. Cells were transferred to amended N6 media for 8 days, the environmental stress (if any) applied, and the cells harvested.
(§3) Total RNA from seeds, regardless of treatment, was extracted according to Wan and Wilkins (1994). Total RNA (20 μg per lane) from seeds was transferred onto positively charged nylon membranes (Amersham Life Science Inc., Arlington Heights, Ill., USA) in 10×SSC (1×SSC is 150 mM NaCl and 15 mM Na citrate pH 7) overnight, the blot dried and UV cross-linked at 50 mJoules on a GS genelinker UV chamber (Bio-Rad Laboratories, Hercules, Calif., USA). After rinsing the membranes for 5 min in 2×SSC, blots were placed in pre-hybridization solution (50% formamide, 5× Denhardt's solution (Denhardt 1966), 100 μg ml^−1 boiled, sheared salmon sperm DNA, 0.2% SDS, 6×SSC pH 7.0, Sambrook et al. 1989) for 4-6 h at 42° C. Randomly labeled, radioactive cDNA probes ([^32P] dCTP) were hybridized to the blots for at least 12 h at the same temperature as pre-hybridization. The primary wash was done in 2×SSC, 0.1% SDS, RT for 5 min, and repeated but at 65° C. for 30 min. The two final high stringency washes were in 0.2×SSC, 0.1% SDS at 65° C. for 30 min each. The hybridized probe was detected by autoradiography using Kodak X-OMAT X-ray film (Eastman-Kodak Ltd.) or on a phosphoimaging screen using a Phosphorlmager (Molecular Dynamics).
The high degree of sequence homology among ZmGOLS genes prompted verification of results from northern blot analysis using RPAs (RPA III, Ambion, Little Rock, Tex., USA). […]

[3] = tested on: ZmRAFS1; experiment: ZmRAFS1 gene expression in maize Hi-II callus (northern blot); details: for ZmRAFS1 expression, effect of raffinose or galactose: 4% sucrose plus raffinose (0.01-1%) or 0.33% galactose, 42° C. for 1 d (FIG. 8C); for ZmRAFS1 mRNA accumulation with myo-inositol or mannitol in the media (FIG. 8A): 2% sucrose plus 0.01% myo-inositol or 7.8% mannitol, control, dehydrated, 4 or 42° C.
Experimental: as §1, §2, §3

[4] = unstressed cells on N6+2% (w/v) sucrose, 1, 10, 100 μM ABA, 1 d

**Q.** `OC[C@H]1O[C@@](CO)(O[C@H]2O[C@H](CO)[C@@H](O)[C@H](O)[C@H]2O)[C@@H](O)[C@@H]1O` [2% sucrose, sucrose] was tested. Which “Relative weight gain, Dehydration stressed” value [1] did it give?
**A.** Its value is 1.35 ± 0.16 b.

**Q.** And the “Relative weight gain, Control” value [1]?
**A.** The value was 1.89 ± 0.17 a.

**Q.** Which results are given for `OC[C@H]1O[C@@](CO)(O[C@H]2O[C@H](CO)[C@@H](O)[C@H](O)[C@H]2O)[C@@H](O)[C@@H]1O` [5% sucrose, sucrose]?
**A.** Relative weight gain, Dehydration stressed [1]: 1.37 ± 0.02 b; Relative weight gain, Control [1]: 1.45 ± 0.04 b

**Q.** Which “ZmGOLS2 gene expression in response to applied ABA” value [2, 4] does the source give for `CC1=CC(=O)CC(C)(C)[C@@]1(O)/C=C/C(C)=C\C(=O)O` [ABA, abscisic acid] here?
**A.** Its value is “not responsive to ABA”.

**Q.** What about the “ZmRAFS1 gene expression in response to applied ABA” value [3, 4] of the same compound?
**A.** Its value is “not induced beyond that of 2% sucrose alone”.

**Q.** Which “ZmRAFS1 expression, effect of raffinose or galactose” value [3] does the source give for `O=C[C@H](O)[C@@H](O)[C@@H](O)[C@H](O)CO` [galactose] here?
**A.** The value was “as effective as raffinose at repressing ZmRAFS1 expression at equal galactose molarities”.

**Q.** For `OC[C@@H](O)[C@@H](O)[C@H](O)[C@H](O)CO` [mannitol], which “ZmGOLS2 mRNA in stressed callus (FIG. 7A)” value [2] is on record?
**A.** The value was “upregulated ZmGOLS2 gene expression when subjected to dehydration but not to heat stress”.

**Q.** What about the “ZmGOLS2 transcription, low mannitol” value ([2]; dehydrated cells, 0.1-0.5% w/v) of the same compound?
**A.** Its value is “repressed ZmGOLS2 transcription below that present in cells grown on 2% sucrose alone”.

**Q.** What about the “ZmGOLS2 transcription, very high mannitol” value ([2]; dehydrated cells, 7.8% w/v) of the same compound?
**A.** The value was “upregulated ZmGOLS2 transcription”.

**Q.** What about the “ZmRAFS1 mRNA accumulation with myo-inositol or mannitol in the media (FIG. 8A)” value [3] of the same compound?
**A.** Its value is “did not influence ZmRAFS1 gene expression”.

**Q.** `O[C@H]1[C@H](O)[C@@H](O)[C@H](O)[C@@H](O)[C@H]1O` [myo-inositol, 1,2,3,5-trans-4,6-hexahydroxy cyclohexane] was tested. Which “ZmGOLS2 mRNA in stressed callus (FIG. 7A)” value [2] did it give?
**A.** The value was “ZmGOLS2 mRNA accumulation”.

**Q.** What about the “ZmGOLS2 transcription, low myo-inositol” value ([2]; dehydrated cells, 2% sucrose, 0.01-0.1% w/v) of the same compound?
**A.** Its value is “upregulated ZmGOLS2 transcription”.

**Q.** What about the “ZmGOLS2 transcription, high myo-inositol” value ([2]; dehydrated cells, 2% sucrose, 1% w/v) of the same compound?
**A.** Its value is “repressed ZmGOLS2 transcription below that on 2% sucrose alone”.

**Q.** And the “ZmRAFS1 mRNA accumulation with myo-inositol or mannitol in the media (FIG. 8A)” value [3]?
**A.** The value was “did not elicit greater ZmRAFS1 mRNA accumulation with the exception of cells exposed to heat shock”.

**Q.** What does the source list for `OC[C@H]1O[C@H](OC[C@H]2O[C@H](O[C@]3(CO)O[C@H](CO)[C@@H](O)[C@@H]3O)[C@H](O)[C@@H](O)[C@@H]2O)[C@H](O)[C@@H](O)[C@H]1O` [raffinose]?
**A.** callus mass accumulation ([1]; 0.1% raffinose in medium with 5% sucrose, unstressed): prevented the detrimental effect of high sucrose on callus mass accumulation; callus growth following dehydration stress ([1]; 0.1% w/v raffinose with 5% sucrose, 4 h dehydration): grew as well as callus that had not been subjected to dehydration; also recorded: capable of alleviating dehydration-induced damage; ZmRAFS1 expression, effect of raffinose or galactose [3]: may inhibit the expression of ZmRAFS1 upon attaining a sufficient concentration

**Q.** How did the “ZmGOLS2 expression, low scyllo-inositol with high mannitol” value ([2]; dehydrated cells, 2% sucrose (FIG. 7C)) turn out when `O[C@H]1[C@H](O)[C@@H](O)[C@H](O)[C@@H](O)[C@@H]1O` [scyllo-inositol] was run?
**A.** Its value is “did not alter the expression of ZmGOLS2 relative to similar concentrations of myo-inositol and mannitol”.

**Q.** `OC[C@H]1O[C@@](CO)(O[C@H]2O[C@H](CO)[C@@H](O)[C@H](O)[C@H]2O)[C@@H](O)[C@@H]1O` [sucrose] was tested. Which “ZmRAFS1 gene expression, effect of sucrose and its monosaccharides” value ([3]; heat-stressed callus, 2% (w/v) or greater sucrose (FIG. 8B, 8C)) did it give?
**A.** The value was “up-regulated by sucrose”.
